From patent publication US20250250299A1, “MACROCYCLIC IMMUNOMODULATORS” (Bristol-Myers Squibb Company, priority 2022, published 2025)
Where a SMILES comes first, the peptide text is derived from it. Bridges are numbered along the chain shown (N, C = ends). [ ]: non-standard residue; d: D form. The star is where a group is joined. X1 = O=C(O)CCCCCCCCCCCCCCCCC(=O)N[C@@H](CCC(=O)NCCOCCOCCOCCOCCOCCOCCOCCOCCOCCOCCOCCn1cc(C*)nn1)C(=O)O; Phe(4-COOH) = N[C@@H](Cc1ccc(C(=O)O)cc1)C(=O)O; Bip = N[C@@H](Cc1ccc(-c2ccccc2)cc1)C(=O)O; Phe(3-Me) = Cc1cccc(C[C@H](N)C(=O)O)c1; C12 diacid = O=C(O)CCCCCCCCCCC(=O)*; 4Pal = N[C@@H](Cc1ccncc1)C(=O)O; Cha = N[C@@H](CC1CCCCC1)C(=O)O; Carboxymethyl = O=C(O)C*; NMeA = CN[C@@H](C)C(=O)O; Orn = NCCC[C@H](N)C(=O)O; Dab = NCC[C@H](N)C(=O)O; Nva = CCC[C@H](N)C(=O)O; Abu = CC[C@H](N)C(=O)O; Dap = NC[C@H](N)C(=O)O; AEEA = NCCOCCOCC(=O)O

molecular target: T1, human PD-1 (Jurkat-PD-1 cells; binding of PE-labeled human PD-L1-Ig) (Homo sapiens, UniProt Q15116); experiment: Jurkat-PD-1 Cell Binding High-Content Screening Assay; conditions: Jurkat cell line over-expressing human PD-1; compound 2 h at 37° C., then PE-labeled PD-L1-Ig 20 nM final, 1 hour; read-out: Jurkat hPD1 PDL1 IC50
T1 construct: expressed in transfected cells; host or cells: Jurkat (Jurkat-PD-1 / Jurkat-hPD-1)
T1 sequence (Q15116 25-288): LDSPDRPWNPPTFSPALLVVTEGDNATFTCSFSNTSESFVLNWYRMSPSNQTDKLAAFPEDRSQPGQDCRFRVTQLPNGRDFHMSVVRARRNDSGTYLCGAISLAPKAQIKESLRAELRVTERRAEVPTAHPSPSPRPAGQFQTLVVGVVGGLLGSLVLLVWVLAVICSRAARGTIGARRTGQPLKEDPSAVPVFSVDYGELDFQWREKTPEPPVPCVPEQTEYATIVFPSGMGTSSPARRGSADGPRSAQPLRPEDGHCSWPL
Method: The ability of the compounds of formula (I) to bind to PD-1 was investigated using a Jurkat-PD-1 Cell Binding High-Content Screening Assay.
Phycoerythrin (PE) was covalently linked to the Ig epitope tag of human PD-L1-Ig and fluorescently-labeled PD-L1-Ig was used for binding studies with a Jurkat cell line over-expressing human PD-1 (Jurkat-PD-1). Briefly, 8×10^3 Jurkat-hPD-1 cells were seeded into 384 well plates in 20 μl of DIVEM supplemented with 10% fetal calf serum. 100 nl of compound was added to cells followed by incubation at 37° C. for 2 h. Then, 5 μl of PE-labeled PD-L1-Ig (20 nM final), diluted in DiVEM supplemented with 10 fetal calf serum. After 1 hour incubation, cells were fixed with […] in dPBS containing 10 µg/mL Hoechst 33342 and then washed 3× in 100 μl dPB S. Data was collected and processed using a Cell Insight NXT High Content Imager and associated software.

Structure (SMILES) | IC50
Cc1cccc(C[C@@H]2NC(=O)[C@H](CC(=O)O)NC(=O)[C@H](Cc3ccc(OCC(=O)O)cc3)NC(=O)[C@H](CCN)NC(=O)CSC[C@@H](C(=O)N[C@@H](CCN)C(N)=O)NC(=O)[C@H](Cc3ccc(OCc4cn(CCOCCOCCOCCOCCOCCOCCOCCOCCOCCOCCOCCNC(=O)CC[C@H](NC(=O)CCCCCCCCCCCCCCCCC(=O)O)C(=O)O)nn4)cc3)NC(=O)[C@H](C(C)C)NC(=O)[C@H](CC3CCCCC3)NC(=O)[C@H](CCN)NC(=O)[C@@H](CC(C)C)NC(=O)[C@H](CCCN)NC(=O)[C@H](Cc3ccc(OCC(=O)O)cc3)NC(=O)[C@H](Cc3ccc(-c4ccccc4)cc3)NC(=O)[C@H](Cc3ccc(OCC(=O)O)cc3)NC2=O)c1 [Compound 1012] ({CH2CO}-[Dab]Y(Carboxymethyl)D[Phe(3-Me)]Y(Carboxymethyl)[Bip]Y(Carboxymethyl)[Orn][dL][Dab][Cha]VY(X1)C[Dab]-NH2; thioether N-14) | 380 nM
Cc1cccc(C[C@@H]2NC(=O)[C@H](CC(=O)O)NC(=O)[C@H](Cc3ccc(OCC(=O)O)cc3)NC(=O)[C@H](CN)NC(=O)CSC[C@@H](C(=O)N[C@@H](CCN)C(N)=O)NC(=O)[C@H](CCC(=O)O)NC(=O)[C@H](C(C)C)NC(=O)[C@H](CC3CCCCC3)NC(=O)[C@H](CCN)NC(=O)[C@@H](CC(C)C)NC(=O)[C@H](CCCN)NC(=O)[C@H](Cc3ccc(OCc4cn(CCOCCOCCOCCOCCOCCOCCOCCOCCOCCOCCOCCNC(=O)CC[C@H](NC(=O)CCCCCCCCCCCCCCCCC(=O)O)C(=O)O)nn4)cc3)NC(=O)[C@H](Cc3ccc(-c4ccccc4)cc3)NC(=O)[C@H](Cc3ccc(OCC(=O)O)cc3)NC2=O)c1 [Compound 1001] ({CH2CO}-[Dap]Y(Carboxymethyl)D[Phe(3-Me)]Y(Carboxymethyl)[Bip]Y(X1)[Orn][dL][Dab][Cha]VEC[Dab]-NH2; thioether N-14 (inferred)) | 160 nM
Cc1cccc(C[C@@H]2NC(=O)[C@H](CC(=O)O)NC(=O)[C@H](Cc3ccc(OCC(=O)O)cc3)NC(=O)[C@H](CN)NC(=O)CSC[C@@H](C(=O)N[C@@H](CCN)C(=O)NCCOCCOCC(N)=O)NC(=O)[C@H]([C@@H](C)O)NC(=O)[C@H](C(C)C)NC(=O)[C@H](CC3CCCCC3)NC(=O)[C@H](CCN)NC(=O)[C@@H](CC(C)C)NC(=O)[C@H](CCCN)NC(=O)[C@H](Cc3ccc(OCC(=O)O)cc3)NC(=O)[C@H](Cc3ccc(-c4ccccc4)cc3)NC(=O)[C@H](COCc3cn(CCOCCOCCOCCOCCOCCOCCOCCOCCOCCOCCOCCNC(=O)CC[C@H](NC(=O)CCCCCCCCCCCCCCCCC(=O)O)C(=O)O)nn3)NC2=O)c1 [Compound 1040] ({CH2CO}-[Dap]Y(Carboxymethyl)D[Phe(3-Me)]S(X1)[Bip]Y(Carboxymethyl)[Orn][dL][Dab][Cha]VTC[Dab][AEEA]-NH2; thioether N-14) | 250 nM
CC(C)C[C@H]1NC(=O)[C@H](C)N(C)C(=O)[C@H](C(C)C)NC(=O)[C@H](Cc2ccc(-c3ccccc3)cc2)NC(=O)[C@H](C(C)C)NC(=O)[C@H](Cc2c[nH]c3ccccc23)NC(=O)[C@H](CC(=O)O)NC(=O)[C@H](Cc2ccncc2)NC(=O)[C@H](Cc2ccc(OCC(=O)O)cc2)NC(=O)CSC[C@@H](C(N)=O)NC(=O)[C@H](CCCCNC(=O)CCCCCCCCCCC(=O)O)NC(=O)[C@H](C(C)C)NC(=O)[C@H](CC2CCCCC2)NC(=O)[C@H](CC(N)=O)NC1=O [Compound 1045] ({CH2CO}-Y(Carboxymethyl)[4Pal]DWV[Bip]V[NMeA][dL]N[Cha]VK(C12 diacid)C-NH2; thioether N-14) | 180 nM
Cc1cccc(C[C@@H]2NC(=O)[C@H](CC(=O)O)NC(=O)[C@H](Cc3ccc(OCc4cn(CCOCCOCCOCCOCCOCCOCCOCCOCCOCCOCCOCCNC(=O)CC[C@H](NC(=O)CCCCCCCCCCCCCCCCC(=O)O)C(=O)O)nn4)cc3)NC(=O)[C@H](CN)NC(=O)CSC[C@@H](C(=O)N[C@@H](CCN)C(N)=O)NC(=O)[C@H](CCC(=O)O)NC(=O)[C@H](C(C)C)NC(=O)[C@H](CC3CCCCC3)NC(=O)[C@H](CCN)NC(=O)[C@@H](CC(C)C)NC(=O)[C@H](CCCN)NC(=O)[C@H](Cc3ccc(OCC(=O)O)cc3)NC(=O)[C@H](Cc3ccc(-c4ccccc4)cc3)NC(=O)[C@H](Cc3ccc(OCC(=O)O)cc3)NC2=O)c1 [Compound 1008] ({CH2CO}-[Dap]Y(X1)D[Phe(3-Me)]Y(Carboxymethyl)[Bip]Y(Carboxymethyl)[Orn][dL][Dab][Cha]VEC[Dab]-NH2; thioether N-14) | 710 nM
Cc1cccc(C[C@@H]2NC(=O)[C@H](CC(=O)O)NC(=O)[C@H](Cc3ccc(OCC(=O)O)cc3)NC(=O)[C@H](CN)NC(=O)CSC[C@@H](C(=O)N[C@@H](CCN)C(N)=O)NC(=O)[C@H](Cc3ccc(OCc4cn(CCOCCOCCOCCOCCOCCOCCOCCOCCOCCOCCOCCNC(=O)CC[C@H](NC(=O)CCCCCCCCCCCCCCCCC(=O)O)C(=O)O)nn4)cc3)NC(=O)[C@H](C(C)C)NC(=O)[C@H](CC3CCCCC3)NC(=O)[C@H](CCN)NC(=O)[C@@H](CC(C)C)NC(=O)[C@H](CCCN)NC(=O)[C@H](Cc3ccc(OCC(=O)O)cc3)NC(=O)[C@H](Cc3ccc(-c4ccccc4)cc3)NC(=O)[C@H](Cc3ccc(OCC(=O)O)cc3)NC2=O)c1 [Compound 1013] ({CH2CO}-[Dap]Y(Carboxymethyl)D[Phe(3-Me)]Y(Carboxymethyl)[Bip]Y(Carboxymethyl)[Orn][dL][Dab][Cha]VY(X1)C[Dab]-NH2; thioether N-14) | 240 nM

The next compounds have a lower IC50 than those just listed; values first:

IC50 | Structure (SMILES)
95 nM | CC[C@@H]1NC(=O)CSC[C@@H](C(=O)N[C@@H](CCN)C(N)=O)NC(=O)[C@H](CCC(=O)O)NC(=O)[C@H](C(C)C)NC(=O)[C@H](CC2CCCCC2)NC(=O)[C@H](CCN)NC(=O)[C@@H](CC(C)C)NC(=O)[C@H](CCCN)NC(=O)[C@H](Cc2ccc(C(=O)O)cc2)NC(=O)[C@H](Cc2ccc(-c3ccccc3)cc2)NC(=O)[C@H](Cc2ccc(OCc3cn(CCOCCOCCOCCOCCOCCOCCOCCOCCOCCOCCOCCNC(=O)CC[C@H](NC(=O)CCCCCCCCCCCCCCCCC(=O)O)C(=O)O)nn3)cc2)NC(=O)[C@H](Cc2cccc(C)c2)NC(=O)[C@H](CC(=O)O)NC(=O)[C@H](Cc2ccc(C(=O)O)cc2)NC1=O [Compound 1021] ({CH2CO}-[Abu][Phe(4-COOH)]D[Phe(3-Me)]Y(X1)[Bip][Phe(4-COOH)][Orn][dL][Dab][Cha]VEC[Dab]-NH2; thioether N-14)
110 nM | CCC[C@@H]1NC(=O)CSC[C@@H](C(=O)N[C@@H](CCN)C(N)=O)NC(=O)[C@H](CCC(=O)O)NC(=O)[C@H](C(C)C)NC(=O)[C@H](CC2CCCCC2)NC(=O)[C@H](CCN)NC(=O)[C@@H](CC(C)C)NC(=O)[C@H](CCCN)NC(=O)[C@H](Cc2ccc(OCC(=O)O)cc2)NC(=O)[C@H](Cc2ccc(-c3ccccc3)cc2)NC(=O)[C@H](Cc2ccc(OCc3cn(CCOCCOCCOCCOCCOCCOCCOCCOCCOCCOCCOCCNC(=O)CC[C@H](NC(=O)CCCCCCCCCCCCCCCCC(=O)O)C(=O)O)nn3)cc2)NC(=O)[C@H](Cc2cccc(C)c2)NC(=O)[C@H](CC(=O)O)NC(=O)[C@H](Cc2ccc(OCC(=O)O)cc2)NC1=O [Compound 1018] ({CH2CO}-[Nva]Y(Carboxymethyl)D[Phe(3-Me)]Y(X1)[Bip]Y(Carboxymethyl)[Orn][dL][Dab][Cha]VEC[Dab]-NH2; thioether N-14)
140 nM | Cc1cccc(C[C@@H]2NC(=O)[C@H](CC(=O)O)NC(=O)[C@H](Cc3ccc(OCC(=O)O)cc3)NC(=O)[C@H]([C@@H](C)O)NC(=O)CSC[C@@H](C(=O)N[C@@H](CCN)C(N)=O)NC(=O)[C@H](CCC(=O)O)NC(=O)[C@H](C(C)C)NC(=O)[C@H](CC3CCCCC3)NC(=O)[C@H](CCN)NC(=O)[C@@H](CC(C)C)NC(=O)[C@H](CCCN)NC(=O)[C@H](Cc3ccc(OCC(=O)O)cc3)NC(=O)[C@H](Cc3ccc(-c4ccccc4)cc3)NC(=O)[C@H](Cc3ccc(OCc4cn(CCOCCOCCOCCOCCOCCOCCOCCOCCOCCOCCOCCNC(=O)CC[C@H](NC(=O)CCCCCCCCCCCCCCCCC(=O)O)C(=O)O)nn4)cc3)NC2=O)c1 [Compound 1019] ({CH2CO}-TY(Carboxymethyl)D[Phe(3-Me)]Y(X1)[Bip]Y(Carboxymethyl)[Orn][dL][Dab][Cha]VEC[Dab]-NH2; thioether N-14)
99 nM | Cc1cccc(C[C@@H]2NC(=O)[C@H](CC(=O)O)NC(=O)[C@H](Cc3ccc(C(=O)O)cc3)NC(=O)[C@H]([C@@H](C)O)NC(=O)CSC[C@@H](C(=O)N[C@@H](CCN)C(N)=O)NC(=O)[C@H](CCC(=O)O)NC(=O)[C@H](C(C)C)NC(=O)[C@H](CC3CCCCC3)NC(=O)[C@H](CCN)NC(=O)[C@@H](CC(C)C)NC(=O)[C@H](CCCN)NC(=O)[C@H](Cc3ccc(C(=O)O)cc3)NC(=O)[C@H](Cc3ccc(-c4ccccc4)cc3)NC(=O)[C@H](Cc3ccc(OCc4cn(CCOCCOCCOCCOCCOCCOCCOCCOCCOCCOCCOCCNC(=O)CC[C@H](NC(=O)CCCCCCCCCCCCCCCCC(=O)O)C(=O)O)nn4)cc3)NC2=O)c1 [Compound 1023] ({CH2CO}-T[Phe(4-COOH)]D[Phe(3-Me)]Y(X1)[Bip][Phe(4-COOH)][Orn][dL][Dab][Cha]VEC[Dab]-NH2; thioether N-14)
130 nM | Cc1cccc(C[C@@H]2NC(=O)[C@H](CC(=O)O)NC(=O)[C@H](Cc3ccc(OCC(=O)O)cc3)NC(=O)[C@H](CCCNC(=N)N)NC(=O)CSC[C@@H](C(N)=O)NC(=O)[C@H]([C@@H](C)O)NC(=O)[C@H](C(C)C)NC(=O)[C@H](CC3CCCCC3)NC(=O)[C@H](CCN)NC(=O)[C@@H](CC(C)C)NC(=O)[C@H](C)N(C)C(=O)[C@H](CCCNC(=O)CCCCCCCCCCC(=O)O)NC(=O)[C@H](Cc3ccc(-c4ccccc4)cc3)NC(=O)[C@H](Cc3ccc(O)cc3)NC2=O)c1 [Compound 1036] ({CH2CO}-RY(Carboxymethyl)D[Phe(3-Me)]Y[Bip][Orn](C12 diacid)[NMeA][dL][Dab][Cha]VTC-NH2; thioether N-14)
